We go through 1 compound from PMC7883289, “Synthesis of Paeonol-Ozagrel Conjugate: Structure Characterization and In Vivo Anti-Ischemic Stroke potential” (Frontiers in Pharmacology, 2021).

The structures appear in SMILES notation.

For this assay, the system named is middle cerebral artery occlusion (MCAO) rats. The assay can be described thus: HE staining, histopathologic changes in brain cortex of MCAO rats. In kind it is in vivo. As to conditions: 24 h after treatment, POC 4.5 mg/kg iv, compared with the model group, n = 3. The procedure: Male Sprague Dawley (SD) rats weighing among 220 g–230 g (Anhui Medicine University, Hefei, China; certificate number: SCXK20190,003) were housed under ad libitum access to food and water with a standardized light-dark cycle condition (25 ± 2°C, 12–hour light/dark cycle). All the experimental protocols were performed in accordance with the Institutional Animal Care and Use Committee of Anhui University of Chinese Medicine (Animal ethics number: AHUCM–rats–2019001). We used the minimal number of study animals (n = 6 rats in each group for different experiments). The rats were fastened upon the operating table in a supine position after being anesthetized with 2% pelltobarbitalum natricum (50 mg/kg). After disinfection of the skin within close proximity of the operative region, the right common carotid artery (CCA), external carotid artery (ECA) and internal carotid artery (ICA) were exposed with blunt dissection. The CCA was temporarily ligated and the ECA were permanently ligated ([Liu et al., 2016]). A nylon monofilament surgical thread was introduced into the ICA to block the MCA when the blunted distal end met resistance. After 2 h of occlusion, reperfusion was accomplished to restore blood supply to the MCA area by removing the filament ([Li et al., 2009]; [Zhai et al., 2017]). […] Rats were split randomly into five groups, including the sham, model, paeonol, OS and POC group. […]

As for `COc1ccc(C(C)=O)c(OC(=O)C=Cc2ccc(Cn3ccnc3)cc2)c1` [POC, paeonol-ozagrel conjugate], the “histopathologic changes in brain cortex (HE)” value is “only marginal neuronal cells damage”.
